Here are results for 110 compounds from a flash point compilation (Sun et al. 2020).

Compound `CCC(CC)C(=O)O` [2-ethylbutanoicacid] showed a flash point of 87 °C. In the case of `CCC1CCCCC1=O` (stereo not given) [2-ethylcyclohexanone] it was 59 °C; in that of `CCc1ccccc1O` [2-ethylphenol], 85 °C; in that of `Cc1ccccc1F` [2-fluorotoluene], 12 °C.

`CCCCCC(C)O` (stereo not given) [2-heptanol] yielded a flash point of 59 °C. In the case of `CCC(C)I` (stereo not given) [2-iodobutane] it was 24 °C. For the compound `Cc1ccccc1I` [2-iodotoluene], the flash point was determined as 90 °C.

`CC(C)c1ccccc1N` [2-isopropylaniline] yielded a flash point of 95 °C. In the case of `CC(C)C1CCCCC1=O` (stereo not given) [2-isopropylcyclohexanone] it was 65 °C; in that of `CC(C)c1ccccc1O` [2-isopropylphenol], 89 °C. To `COC1CCCCC1=O` (stereo not given) [2-methoxycyclohexanone] belongs 69 °C. `CC1OCCO1` [2-methyl-1,3-dioxolane] showed a flash point of -2 °C. In the case of `C=C(C)CCCCC` [2-methyl-1-heptene] it was 10 °C; in that of `C=C(C)CCCC` [2-methyl-1-hexene], -8 °C. In the case of `CCCC(C)CO` (stereo not given) [2-methyl-1-pentanol], the flash point is 51 °C. In turn, `C=C(C)CO` [2-methyl-2-propen-1-ol] had a flash point of 33 °C. To `C=C(C)C=O` [2-methyl-2-propenal] belongs -15 °C. In the case of `CCC(=O)C(C)C` [2-methyl-3-pentanone] it was 16 °C; in that of `COc1ccccc1C` [2-methylanisole], 51 °C; in that of `CCC(C)C` [2-methylbutane], -51 °C. `CC1CCCCC1=O` (stereo not given) [2-methylcyclohexanone]: the flash point is 46 °C. With `CC1CCCCCCC1=O` (stereo not given) [2-methylcyclooctanone], the flash point turned out to be 71 °C. To `CC1CCCC1=O` (stereo not given) [2-methylcyclopentanone] belongs 26 °C; to `Cc1ccco1` [2-methylfuran], -26 °C; to `CCCCCC(C)C` [2-methylheptane], 4 °C. `CCCCCCCC(C)C` [2-methylnonane] displayed a flash point of 38 °C.

`CCCC(C)C` [2-methylpentane] displayed a flash point of -32 °C. In the case of `CCCC(C)C(=O)O` (stereo not given) [2-methylpentanoicacid] it was 91 °C; in that of `CC(C)C=O` [2-methylpropanal], -19 °C; in that of `CC(C)C(=O)O` [2-methylpropanoicacid], 59 °C. In turn, `CC1CCCO1` (stereo not given) [2-methyltetrahydrofuran] yielded a flash point of -12 °C. `Cc1cccs1` [2-methylthiophene] registered a flash point of 8 °C. Compound `CCCC(C)[N+](=O)[O-]` (stereo not given) [2-nitropentane] had a flash point of 46 °C.

`CCCCCCCC(C)O` (stereo not given) [2-nonanol] displayed a flash point of 82 °C.

In turn, `CC#CCCCCCC` [2-nonyne] yielded a flash point of 39 °C. Turning to `C1=CC2CCC1C2` [2-norbornene], the flash point is -14 °C. In the case of `CCCCCCC(C)=O` [2-octanone], the flash point was 56 °C. `CCCC(C)S` (stereo not given) [2-pentanethiol] had a flash point of 15 °C. For `CCCC(C)O` (stereo not given) [2-pentanol], the flash point was 34 °C. In the case of `CC#CCC` [2-pentyne] it was -30 °C. The compound `OCCc1ccccc1` [2-phenylethanol] yielded a flash point of 102 °C.

`CC(=O)OCCc1ccccc1` [2-phenylethylacetate] came in with a flash point of 102 °C. Consider `CCC(=O)OCCc1ccccc1` [2-phenylethylpropionate], for which the flash point is 113 °C. As to `Cc1ccccn1` [2-picoline], the flash point was 26 °C. To `CCCc1ccccc1N` [2-propylaniline] belongs 97 °C. In the case of `CCCc1cccs1` [2-propylthiophene] it was 32 °C; in that of `C#CCO` [2-propyn-1-ol], 36 °C. In the case of `CCC(C)c1ccccc1N` (stereo not given) [2-sec-butylaniline], the flash point was found to be 102 °C. As to `CC(C)(C)C1CCCCC1=O` (stereo not given) [2-tert-butylcyclohexanone], the flash point was 72 °C. Turning to `CC(C)(C)c1ccco1` [2-tert-butylfuran], the flash point was determined as 7 °C.

Regarding `CC(C)(C)c1ccccc1O` [2-tert-butylphenol], the flash point is 102 °C. The compound `CCCCCCCCCC(C)O` (stereo not given) [2-undecanol] registered a flash point of 107 °C. To `CCC(C)C(C)(C)CC` (stereo not given) [3,3,4-trimethylhexane] belongs 15 °C. Compound `CCCC(C)C(C)CC` (stereo not given) [3,4-dimethylheptane] returned a flash point of 15 °C. To `CC(C)=CCCC(C)CC=O` (stereo not given) [3,7-dimethyl-6-octenal] belongs 78 °C. For `CCCC(Br)CC` (stereo not given) [3-bromohexane], the flash point worked out at 40 °C.

`CCC(Br)CC` [3-bromopentane]: the flash point was found to be 19 °C. In the case of `Cc1cccc(Br)c1` [3-bromotoluene] it was 75 °C; in that of `C=CCCO` [3-buten-1-ol], 32 °C; in that of `C=CC(C)O` (stereo not given) [3-buten-2-ol], 20 °C.

Turning to `OCCCCl` [3-chloro-1-propanol], the flash point is 73 °C. To `C=C(C)CCl` [3-chloro-2-methyl-1-propene] belongs -12 °C; to `C=CCCl` [3-chloropropene], -28 °C. Consider `CCC(CC)C(C)(C)C` [3-ethyl-2,2-dimethylpentane], for which the flash point worked out at 13 °C.

Consider `CCC(C(C)C)C(C)C` [3-ethyl-2,4-dimethylpentane], for which the flash point was 15 °C. In the case of `CCC(CC)C(C)C` [3-ethyl-2-methylpentane] it was 3 °C.

`CC=C(CC)CC` [3-ethyl-2-pentene] displayed a flash point of -6 °C.

For the compound `CCCCC(C)(CC)CC` [3-ethyl-3-methylheptane], the flash point turned out to be 41 °C.

In turn, `CCC(C)CC(CC)CC` (stereo not given) [3-ethyl-5-methylheptane] came in with a flash point of 31 °C.

With `CCCC(CC)CC` [3-ethylhexane], the flash point worked out at 5 °C. In the case of `CCc1cccc(O)c1` [3-ethylphenol] it was 94 °C; in that of `CCc1ccsc1` [3-ethylthiophene], 23 °C; in that of `Cc1cccc(F)c1` [3-fluorotoluene], 12 °C.

Take `CCCCC(=O)CC` [3-heptanone]: the flash point is 38 °C. To `CCC#CCC` [3-hexyne] belongs -14 °C; to `C=CCI` [3-iodo-1-propene], 16 °C; to `CCCC(I)CC` (stereo not given) [3-iodohexane], 55 °C.

`CC(C)c1cccc(O)c1` [3-isopropylphenol] came in with a flash point of 104 °C. In the case of `C=CC(C)CCC` (stereo not given) [3-methyl-1-hexene] it was -18 °C. To `C=CC(C)CC` (stereo not given) [3-methyl-1-pentene] belongs -33 °C; to `CC(C)C(C)S` (stereo not given) [3-methyl-2-butanethiol], 9 °C; to `CC(C)C(C)O` (stereo not given) [3-methyl-2-butanol], 27 °C. In the case of `Cc1cccc(N)c1` [3-methylaniline] it was 86 °C.

Turning to `CC(C)CC(=O)O` [3-methylbutanoicacid], the flash point is 74 °C. On to `CC(C)CC(=O)OC(=O)CC(C)C` [3-methylbutanoicanhydride], for which the flash point amounted to 91 °C. In the case of `CC1CCCC(=O)C1` (stereo not given) [3-methylcyclohexanone] it was 48 °C; in that of `CCCCC(C)CC` (stereo not given) [3-methylheptane], 6 °C; in that of `CCCC(C)CC` (stereo not given) [3-methylhexane], -15 °C. To `CCCC(C)CC(=O)O` (stereo not given) [3-methylhexanoicacid] belongs 103 °C. Regarding `C=Cc1cccc(C)c1` [3-methylstyrene], the flash point was determined as 48 °C. On to `Cc1ccsc1` [3-methylthiophene], for which the flash point was determined as 11 °C.

Regarding `CCCCCCC(O)CC` (stereo not given) [3-nonanol], the flash point amounted to 79 °C. Regarding `CCC#CCCCCC` [3-nonyne], the flash point came out at 38 °C. In the case of `CCCCCC(O)CC` (stereo not given) [3-octanol] it was 68 °C.

`CC(=O)OCCCc1ccccc1` [3-phenylpropylacetate]: the flash point stood at 113 °C.

With `CCCCCCCCC(=O)CC` [3-undecanone], the flash point worked out at 89 °C. To `C=CCCBr` [4-bromo-1-butene] belongs 9 °C; to `CCCCCCC(=O)CCC` [4-decanone], 71 °C; to `CCCC#CCCCCC` [4-decyne], 52 °C.

`CCc1ccc(N)cc1` [4-ethylaniline] returned a flash point of 97 °C.

As for `CCCC(CC)CCC` [4-ethylheptane], the flash point was 15 °C.

In the case of `C=CC=C(C)C` [4-methyl-1,3-pentadiene], the flash point was -18 °C. In turn, `C=CCC(C)CCC` (stereo not given) [4-methyl-1-heptene] yielded a flash point of 2 °C. The compound `C=CCC(C)CC` (stereo not given) [4-methyl-1-hexene] returned a flash point of -15 °C.

Consider `CC(C)CCCO` [4-methyl-1-pentanol], for which the flash point was determined as 51 °C. In the case of `C#CCC(C)C` [4-methyl-1-pentyne] it was -24 °C. To `CC(=O)CC(C)C` [4-methyl-2-pentanone] belongs 14 °C; to `C=CC1(C)CCC(=O)O1` (stereo not given) [4-methyl-4-vinylbutyrolactone], 75 °C. To `CC1CCC(=O)CC1` [4-methylcyclohexanone] belongs 48 °C; to `CCC(C)CCC(=O)O` (stereo not given) [4-methylhexanoicacid], 103 °C.
